{"source": "patent US20250185666A1", "about": "“Root-Targeted Delivery of Agrochemicals using Natural Microbial Carriers” (priority 2023, published 2025)", "key": {"Spodoptera frugiperda": {"system": "Spodoptera frugiperda", "assay": "Maize leaf fall armyworm damage assay after seed treatment (feeding damage and FAW mortality)", "type": "in vivo", "design": "Regression for feeding damage by leaf segment, Leaf 3 Middle / Regression for feeding damage by leaf segment, Leaf 3 Tip / Regression for feeding damage by leaf segment, Leaf 4 Middle / Regression for feeding damage by leaf segment, Leaf 4 Tip / Regression for feeding damage by leaf segment, Leaf 5 Middle / Regression for feeding damage by leaf segment, Leaf 5 Tip: unit not given here", "details": "for Regression for feeding damage by leaf segment, Leaf 3 Middle / Regression for feeding damage by leaf segment, Leaf 3 Tip / Regression for feeding damage by leaf segment, Leaf 4 Middle / Regression for feeding damage by leaf segment, Leaf 4 Tip / Regression for feeding damage by leaf segment, Leaf 5 Middle / Regression for feeding damage by leaf segment, Leaf 5 Tip: coefficient vs Baseline; for Regression for FAW mortality rate (coefficient) / Regression for overall feeding damage (coefficient): vs Baseline, controls for experimental run and tray location; for Regression for FAW mortality rate (coefficient): across six leaf segments per plant; for Regression for overall feeding damage (coefficient): averaged across six leaf segments per plant", "protocol": "An experiment was designed to measure any systemic effects of soil protists in the presence and absence of (agrochemical) insecticide on pest damage resistance for plants grown from seeds. The experiments consisted of two stages: the growth stage and the pest stage. In the growth stage, maize seeds were treated individually with one of six mixtures containing bacteria, protists, and or/agrochemicals. All treatments included heat-killed bacteria, the food source for protists (protozoa). Additional potential components of each treatment were one of two agrochemicals, or soil protists, or one of two agrochemicals plus soil protists (Table 1). Treated seeds were germinated and grown in soil-filled pots in a greenhouse. Plants were grown in surplus quantities and down-selected to 48 representative plants per treatment for each experimental run (Table 2).\nIn the pest stage, three individual leaves were harvested from each plant, then the Tip and Middle segments of said leaves were collected. Each of the six leaf segments from the plant were placed in individual tray wells and challenged by a single insect larva, as explained further below.\nFormulations for seed treatments (Table 1) were prepared in Page's Saline 24 h prior to inoculation and held at 23° C. in darkness. Prior to application, each formulation was vortexed for 30 sec then a small aliquot (50 μL) was added directly on top of each exposed seed during planting. Based on our prior experience, this small-volume-aliquot performs similarly to more conventionally formulated seed coatings, enabling early-stage screening of experimental formulations that are available only in limited quantities.\nFor each experimental run, 240 pots (10-cm, TLC Square Form Pots, HC Companies) were first filled with dry, steam pasteurized screened field soil (Kalamazoo, Michigan; Coloma loamy sand). The soil was misted with water with an automated system to reach field capacity in the Corteva Agriscience greenhouse located in Indianapolis, IN for at least 4 d prior to planting. Next, 3.8 cm deep, 2 cm wide holes were created in the center of each soil-filled pots, and a single seed was placed tip cap side down 3.8 cm below the soil surface. Each seed was immediately inoculated with a seed treatment (described above, n=60 per treatment). Treated pots were then randomized in the greenhouse to reduce systematic error (FIG. 1A). The greenhouse averaged 23° C. (maximum of 30° C. day and minimum of 19° C. at night). The plants received 100 mL water from the automated system, split over 49 passes, during the first week after planting, and 200 mL water split over 98 passes during the second week after planting.\nLeaf segments were harvested on 48 representative plants selected from the 60 pots per treatment (FIG. 1A). Trays were filled in a semi-random fashion with less optimal plants at the end of tray 3 and the most underdeveloped plants being discarded. Plants were numbered as they were selected during the Leaf 3 harvest, and tracked through the harvest of Leaves 4 and 5 for robustness. Maize leaves are labelled according to the order they sprout. Maize was allowed to grow for 10 d before harvesting Leaf 3 and left for another 4 d (14 d total) before harvesting Leave 4, 5 (FIG. 1B). Leaves were segmented with the distal 3.8 cm labelled as Tip. Leaf Middle segments were harvested as a 3.8-cm segment from the middle of the leaf. For smaller leaves (such as the earlier-harvested Leaf 3), the Middle abutted the Tip. For larger leaves (4th and 5th), any section between Tip and Middle segments was discarded. For agrochemicals which translocate, such as those tested here, the agrochemical accumulates in the leaf Tips. By testing both leaf Tip and Middle, the relative amount of agrochemical moved by phloem or xylem transport since the leaf sprouted can be measured (Tip) along with the agrochemical in the process of transportation during harvest (Middle). […]"}, "[1]": {"assay": "Transport of 14C-labeled Chlorantraniliprole in maize (autoradiography, combustion analysis)", "details": "maize (Zea mays L.), in vivo, 7 d", "protocol": "A scaled-up version of the μ-rhizoslide was developed to work with maize. First, ^14C-labeled agrochemical was dissolved in acetone, spiked onto the wall of a glass sample vial, and the acetone evaporated. Un-radiolabeled agrochemical formulation was then added to the vial and sonicated for 20 min to distribute the ^14C-labeled material into the formulation. The formulation was then mixed with Page's Saline containing heat-killed E. coli, or with Page's Saline containing both protists and heat-killed E. coli to prepare the seed treatments formulation. As described before, the ^14C-labeled seed treatment formulations were allowed to rest in darkness for 24 h prior to application. Final radioactivity was measured at approximately 300,000 DPM per individual seed treatment. Pots were filled, and seeds planted and treated as described above. Plants were harvested at 1 week due to restricted space for work with radiolabeled material. […]\nA similar experiment was conducted using ^14C-labeled Chlorantraniliprole, differing in the allocated growth period (7 vs 14 d), watering schedule (due to limitations of radioactive containment), and pot (3D printed device optimized for radio-detection vs traditional 4.5″ pot). Radioactivity in both the plant material and the soil were measured before combustion analysis was conducted on the plant material."}, "UC-1 cultures": {"system": "UC-1 cultures", "assay": "Screen of candidate formulations for operational toxicity to UC-1 cultures", "details": "concentrated formulation", "text": "Finally, candidate formulations were screened for operational toxicity to UC-1 cultures (i.e., live protists in a concentrated formulation should remain viable and actively moving). […] Both agrochemicals were used in their like-commercial formulations, which is a proprietary blend containing biocides and other ingredients needed to keep the agrochemical suspended and maintain performance."}, "[2]": {"details": "Table 6 (Chlorantraniliprole data set)"}}, "note": "“And” between values parts separate entries of the source, which are not always exact repeats. Equal entries are not always repeated. Marks after values point to notes of the source that are not given here.", "data": [{"molecule": "Spinosad", "values": [{"measurement": "Regression for feeding damage by leaf segment, Leaf 3 Middle", "setting": "Spodoptera frugiperda; Table 7 (Spinosad data set)", "value": "−45.225***"}, {"measurement": "Regression for feeding damage by leaf segment, Leaf 3 Tip", "setting": "Spodoptera frugiperda; Table 7 (Spinosad data set)", "value": "−59.140***"}, {"measurement": "Regression for feeding damage by leaf segment, Leaf 4 Middle", "setting": "Spodoptera frugiperda; Table 7 (Spinosad data set)", "value": "−40.880***"}, {"measurement": "Regression for feeding damage by leaf segment, Leaf 4 Tip", "setting": "Spodoptera frugiperda; Table 7 (Spinosad data set)", "value": "−59.365***"}, {"measurement": "Regression for feeding damage by leaf segment, Leaf 5 Middle", "setting": "Spodoptera frugiperda; Table 7 (Spinosad data set)", "value": "−10.627***"}, {"measurement": "Regression for feeding damage by leaf segment, Leaf 5 Tip", "setting": "Spodoptera frugiperda; Table 7 (Spinosad data set)", "value": "−29.736***"}, {"measurement": "Reduction of feeding damage from Baseline, Leaf 4 Tip", "setting": "Spodoptera frugiperda; in vivo", "value": 58.5, "unit": "percentage points"}, {"measurement": "Reduction of feeding damage from Baseline, Leaf 5 Middle", "setting": "Spodoptera frugiperda; in vivo", "value": 9.5, "unit": "percentage points"}, {"measurement": "Feeding damage, Leaf 4 Tip", "setting": "Spodoptera frugiperda; leaf harvested 14 d", "value": "~35.0", "unit": "%"}, {"measurement": "Feeding damage, Leaf 5 Middle", "setting": "Spodoptera frugiperda; leaf harvested 14 d", "value": "~82.2", "unit": "%"}, {"measurement": "Regression for FAW mortality rate (coefficient)", "setting": "Spodoptera frugiperda", "value": "33.342***"}, {"measurement": "Regression for overall feeding damage (coefficient)", "setting": "Spodoptera frugiperda", "value": "−39.981***"}]}, {"molecule": "CNC(=O)c1cc(Cl)cc(C)c1NC(=O)c1cc(Br)nn1-c1ncccc1Cl", "note": "[Chlorantraniliprole, chlorantraniliprole]", "values": [{"measurement": "Regression for feeding damage by leaf segment, Leaf 3 Middle", "setting": "Spodoptera frugiperda; [2]", "value": "−36.100***"}, {"measurement": "Regression for feeding damage by leaf segment, Leaf 3 Tip", "setting": "Spodoptera frugiperda; [2]", "value": "−65.841***"}, {"measurement": "Regression for feeding damage by leaf segment, Leaf 4 Middle", "setting": "Spodoptera frugiperda; [2]", "value": "−6.424**"}, {"measurement": "Regression for feeding damage by leaf segment, Leaf 4 Tip", "setting": "Spodoptera frugiperda; [2]", "value": "−46.026***"}, {"measurement": "Regression for feeding damage by leaf segment, Leaf 5 Middle", "setting": "Spodoptera frugiperda; [2]", "value": "−2.566"}, {"measurement": "Regression for feeding damage by leaf segment, Leaf 5 Tip", "setting": "Spodoptera frugiperda; [2]", "value": "−34.783***"}, {"measurement": "Reduction of feeding damage from Baseline, Leaf 4 Middle", "setting": "Spodoptera frugiperda; in vivo", "value": 7.2, "unit": "percentage points"}, {"measurement": "Reduction of feeding damage from Baseline, Leaf 5 Middle", "setting": "Spodoptera frugiperda; in vivo", "value": 3.5, "unit": "percentage points"}, {"measurement": "Feeding damage, Leaf 4 Middle", "setting": "Spodoptera frugiperda; leaf harvested 14 d", "value": "86% and 86.4%"}, {"measurement": "Feeding damage, Leaf 4 Tip", "setting": "Spodoptera frugiperda; leaf harvested 14 d", "value": 49, "unit": "%"}, {"measurement": "Feeding damage, Leaf 5 Middle", "setting": "Spodoptera frugiperda; leaf harvested 14 d", "value": 88, "unit": "%"}, {"measurement": "Regression for FAW mortality rate (coefficient)", "setting": "Spodoptera frugiperda", "value": "20.341***"}, {"measurement": "Regression for overall feeding damage (coefficient)", "setting": "Spodoptera frugiperda", "value": "−31.836***"}, {"measurement": "Distribution of 14C-labeled Chlorantraniliprole in plant parts", "setting": "[1]", "value": "higher concentration of Chlorantraniliprole in earlier parts (stem, Leaf 1)"}, {"measurement": "Operational toxicity to UC-1 cultures (live protists remain viable and actively moving)", "setting": "UC-1 cultures", "value": "satisfied all criteria"}]}]}
